Test results published in ChEMBL document CHEMBL1201862, “PubChem BioAssay data set” (2004).
Calls of active or inactive are those of the source.

Key:
[1] = molecular target: T1, Zinc finger protein mex-5 (Caenorhabditis elegans, UniProt Q9XUB2); experiment: MEX-5/TCR-2 RNA interaction inhibitors, dose response, biochemical, C. elegans, fluorescence polarization (AID 1960)
T1 sequence (Q9XUB2 whole entry): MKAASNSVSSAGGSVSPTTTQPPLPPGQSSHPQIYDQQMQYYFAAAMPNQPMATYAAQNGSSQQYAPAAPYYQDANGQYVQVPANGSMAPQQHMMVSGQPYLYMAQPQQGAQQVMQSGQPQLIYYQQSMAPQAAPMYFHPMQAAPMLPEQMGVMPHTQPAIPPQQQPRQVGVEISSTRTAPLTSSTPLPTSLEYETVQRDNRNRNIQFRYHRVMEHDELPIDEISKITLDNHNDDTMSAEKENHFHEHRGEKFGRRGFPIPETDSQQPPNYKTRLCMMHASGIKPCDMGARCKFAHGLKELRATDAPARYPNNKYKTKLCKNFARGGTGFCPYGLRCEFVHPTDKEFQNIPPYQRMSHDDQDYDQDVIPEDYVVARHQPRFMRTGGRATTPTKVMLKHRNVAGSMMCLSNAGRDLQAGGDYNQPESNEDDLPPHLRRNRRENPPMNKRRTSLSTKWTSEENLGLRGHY

[2] = molecular target: Keap1/Nrf2 (Homo sapiens, UniProt Q14145); experiment: Keap1-Nrf2 protein-protein interaction inhibitors, dose response, biochemical, fluorescence polarization, cherry-picked samples (AID 588683)
Chain of Keap1/Nrf2 (Q16236 whole entry, the tested form may be a part): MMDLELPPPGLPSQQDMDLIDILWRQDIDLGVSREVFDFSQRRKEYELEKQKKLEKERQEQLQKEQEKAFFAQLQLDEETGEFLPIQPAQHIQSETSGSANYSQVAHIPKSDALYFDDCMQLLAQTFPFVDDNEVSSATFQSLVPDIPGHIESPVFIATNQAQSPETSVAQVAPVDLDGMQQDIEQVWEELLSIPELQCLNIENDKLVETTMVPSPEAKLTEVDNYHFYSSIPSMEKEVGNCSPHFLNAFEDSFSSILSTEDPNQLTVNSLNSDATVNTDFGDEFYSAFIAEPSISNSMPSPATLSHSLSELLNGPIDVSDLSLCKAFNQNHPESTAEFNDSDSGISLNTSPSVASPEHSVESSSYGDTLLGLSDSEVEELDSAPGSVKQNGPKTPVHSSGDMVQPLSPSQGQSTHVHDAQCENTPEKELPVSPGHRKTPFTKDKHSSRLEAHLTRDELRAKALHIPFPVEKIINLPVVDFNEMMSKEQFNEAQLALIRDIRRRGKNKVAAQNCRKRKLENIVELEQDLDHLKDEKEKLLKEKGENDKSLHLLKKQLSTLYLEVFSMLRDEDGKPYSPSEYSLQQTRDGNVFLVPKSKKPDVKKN
Chain of Keap1/Nrf2 (Q14145 whole entry, the tested form may be a part): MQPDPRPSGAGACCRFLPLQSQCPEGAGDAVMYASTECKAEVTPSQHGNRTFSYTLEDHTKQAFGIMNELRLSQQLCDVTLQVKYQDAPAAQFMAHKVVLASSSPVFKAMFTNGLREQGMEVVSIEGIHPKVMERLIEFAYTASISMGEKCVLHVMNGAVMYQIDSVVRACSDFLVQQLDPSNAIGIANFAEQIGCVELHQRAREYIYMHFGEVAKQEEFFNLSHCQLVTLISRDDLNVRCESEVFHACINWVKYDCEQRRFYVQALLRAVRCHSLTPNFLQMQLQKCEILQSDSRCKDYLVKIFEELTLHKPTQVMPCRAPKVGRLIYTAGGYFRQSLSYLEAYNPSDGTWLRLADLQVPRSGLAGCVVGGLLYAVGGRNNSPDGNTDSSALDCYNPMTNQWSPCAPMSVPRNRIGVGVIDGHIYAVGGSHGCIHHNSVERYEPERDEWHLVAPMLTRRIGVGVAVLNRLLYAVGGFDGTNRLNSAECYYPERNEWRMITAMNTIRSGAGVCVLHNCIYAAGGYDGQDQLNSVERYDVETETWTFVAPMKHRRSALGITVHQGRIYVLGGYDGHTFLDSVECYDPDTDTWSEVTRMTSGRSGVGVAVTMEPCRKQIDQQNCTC

[3] = molecular target: T2, RNA-binding protein pos-1 (Caenorhabditis elegans, UniProt G5EF15); experiment: inhibitors of POS-1/mex-3 RNA binding, dose response, biochemical, fluorescence polarization (AID 1964);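 note: purified POS-1 fused to maltose binding protein made in E. coli; potency of compounds blocking POS-1 binding to fluorescent RNA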
T2 sequence (G5EF15 whole entry): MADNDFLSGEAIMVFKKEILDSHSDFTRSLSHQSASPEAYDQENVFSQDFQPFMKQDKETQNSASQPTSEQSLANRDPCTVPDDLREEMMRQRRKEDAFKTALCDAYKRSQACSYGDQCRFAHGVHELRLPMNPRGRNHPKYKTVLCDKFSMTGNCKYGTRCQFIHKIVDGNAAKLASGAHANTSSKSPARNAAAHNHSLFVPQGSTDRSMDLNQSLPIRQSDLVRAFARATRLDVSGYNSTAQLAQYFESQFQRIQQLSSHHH

[4] = molecular target: T3, Kappa-type opioid receptor (Homo sapiens, UniProt P41145); experiment: KOR agonist analogs, imaging readout, SAR follow-up, image-based (AID 2359); assay type: functional
T3 sequence (P41145 whole entry): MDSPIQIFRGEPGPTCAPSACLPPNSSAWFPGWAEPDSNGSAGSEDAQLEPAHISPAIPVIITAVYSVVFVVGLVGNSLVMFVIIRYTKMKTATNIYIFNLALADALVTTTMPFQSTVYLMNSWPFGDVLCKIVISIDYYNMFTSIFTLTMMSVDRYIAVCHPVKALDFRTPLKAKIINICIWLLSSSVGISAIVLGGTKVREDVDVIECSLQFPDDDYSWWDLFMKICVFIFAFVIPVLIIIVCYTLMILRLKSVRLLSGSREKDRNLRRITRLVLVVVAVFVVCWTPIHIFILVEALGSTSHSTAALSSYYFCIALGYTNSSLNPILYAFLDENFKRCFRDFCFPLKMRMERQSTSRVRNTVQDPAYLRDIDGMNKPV

[5] = molecular target: T3, Kappa-type opioid receptor; experiment: kappa opioid receptor blockers, cell-based, luminescence, beta-arrestin, SAR follow-up (AID 2285); assay type: functional
[6] = molecular target: T3, Kappa-type opioid receptor; experiment: KOR antagonists by imaging, SAR follow-up, image-based (AID 2348); assay type: functional
[7] = molecular target: T4, Delta-type opioid receptor (Homo sapiens, UniProt P41143); experiment: DOR antagonists, SAR follow-up, image-based (AID 2357); assay type: functional
T4 sequence (P41143 whole entry): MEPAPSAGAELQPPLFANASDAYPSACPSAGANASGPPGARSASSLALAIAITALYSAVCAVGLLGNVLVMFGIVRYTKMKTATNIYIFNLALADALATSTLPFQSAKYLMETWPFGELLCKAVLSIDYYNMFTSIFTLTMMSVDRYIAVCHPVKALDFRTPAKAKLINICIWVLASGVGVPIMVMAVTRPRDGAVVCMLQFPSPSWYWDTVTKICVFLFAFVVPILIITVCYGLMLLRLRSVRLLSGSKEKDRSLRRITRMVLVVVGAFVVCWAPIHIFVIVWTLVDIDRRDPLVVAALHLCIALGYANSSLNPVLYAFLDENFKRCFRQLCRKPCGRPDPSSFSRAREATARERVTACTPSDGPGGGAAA

[8] = molecular target: T5, Mu-type opioid receptor (Homo sapiens, UniProt P35372); experiment: MOR antagonists, SAR follow-up, image-based (AID 2420); assay type: functional;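 note: compounds added before stimulation of receptor with agonist DAMGO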
T5 sequence (P35372 whole entry): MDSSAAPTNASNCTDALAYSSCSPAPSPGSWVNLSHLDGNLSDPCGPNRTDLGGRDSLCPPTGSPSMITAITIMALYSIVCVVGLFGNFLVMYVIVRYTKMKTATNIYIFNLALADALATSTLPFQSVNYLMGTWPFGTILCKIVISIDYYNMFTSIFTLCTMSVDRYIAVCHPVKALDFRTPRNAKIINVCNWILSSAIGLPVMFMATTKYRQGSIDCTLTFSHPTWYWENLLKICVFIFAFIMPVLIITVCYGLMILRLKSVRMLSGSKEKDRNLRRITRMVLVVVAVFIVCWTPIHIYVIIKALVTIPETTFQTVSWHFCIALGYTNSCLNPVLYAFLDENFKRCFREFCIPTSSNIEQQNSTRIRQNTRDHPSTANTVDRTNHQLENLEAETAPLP

[9] = molecular target: T5, Mu-type opioid receptor; experiment: MOR agonists by imaging, SAR follow-up, image-based (AID 2352); assay type: functional
[10] = molecular target: T4, Delta-type opioid receptor; experiment: DOR agonists, SAR follow-up, image-based (AID 2370); assay type: functional
[11] = molecular target: Type-1 angiotensin II receptor (Homo sapiens, UniProt P30556); experiment: AT1 receptor antagonists, dose response, selectivity assay for APJ receptor antagonist project, cell-based, uHTS hits (AID 463214); assay type: functional;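 note: antagonist potency against angiotensin II stimulated AT1 response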
Chain of Type-1 angiotensin II receptor (P30556 whole entry): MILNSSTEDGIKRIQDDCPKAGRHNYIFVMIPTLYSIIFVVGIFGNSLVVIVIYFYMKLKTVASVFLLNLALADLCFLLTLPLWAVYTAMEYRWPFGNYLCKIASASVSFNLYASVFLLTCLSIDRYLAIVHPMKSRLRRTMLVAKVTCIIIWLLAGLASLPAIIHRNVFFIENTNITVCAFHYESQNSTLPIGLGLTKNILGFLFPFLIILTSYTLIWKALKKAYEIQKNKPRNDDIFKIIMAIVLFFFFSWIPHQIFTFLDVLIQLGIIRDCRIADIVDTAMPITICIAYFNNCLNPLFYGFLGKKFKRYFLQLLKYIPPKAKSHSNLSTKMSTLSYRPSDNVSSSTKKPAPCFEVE

[12] = molecular target: Beta-galactosidase (Escherichia coli, UniProt Q8VNN2); experiment: PubChem AID 485352; assay type: functional
Chain of Beta-galactosidase (Q8VNN2 whole entry): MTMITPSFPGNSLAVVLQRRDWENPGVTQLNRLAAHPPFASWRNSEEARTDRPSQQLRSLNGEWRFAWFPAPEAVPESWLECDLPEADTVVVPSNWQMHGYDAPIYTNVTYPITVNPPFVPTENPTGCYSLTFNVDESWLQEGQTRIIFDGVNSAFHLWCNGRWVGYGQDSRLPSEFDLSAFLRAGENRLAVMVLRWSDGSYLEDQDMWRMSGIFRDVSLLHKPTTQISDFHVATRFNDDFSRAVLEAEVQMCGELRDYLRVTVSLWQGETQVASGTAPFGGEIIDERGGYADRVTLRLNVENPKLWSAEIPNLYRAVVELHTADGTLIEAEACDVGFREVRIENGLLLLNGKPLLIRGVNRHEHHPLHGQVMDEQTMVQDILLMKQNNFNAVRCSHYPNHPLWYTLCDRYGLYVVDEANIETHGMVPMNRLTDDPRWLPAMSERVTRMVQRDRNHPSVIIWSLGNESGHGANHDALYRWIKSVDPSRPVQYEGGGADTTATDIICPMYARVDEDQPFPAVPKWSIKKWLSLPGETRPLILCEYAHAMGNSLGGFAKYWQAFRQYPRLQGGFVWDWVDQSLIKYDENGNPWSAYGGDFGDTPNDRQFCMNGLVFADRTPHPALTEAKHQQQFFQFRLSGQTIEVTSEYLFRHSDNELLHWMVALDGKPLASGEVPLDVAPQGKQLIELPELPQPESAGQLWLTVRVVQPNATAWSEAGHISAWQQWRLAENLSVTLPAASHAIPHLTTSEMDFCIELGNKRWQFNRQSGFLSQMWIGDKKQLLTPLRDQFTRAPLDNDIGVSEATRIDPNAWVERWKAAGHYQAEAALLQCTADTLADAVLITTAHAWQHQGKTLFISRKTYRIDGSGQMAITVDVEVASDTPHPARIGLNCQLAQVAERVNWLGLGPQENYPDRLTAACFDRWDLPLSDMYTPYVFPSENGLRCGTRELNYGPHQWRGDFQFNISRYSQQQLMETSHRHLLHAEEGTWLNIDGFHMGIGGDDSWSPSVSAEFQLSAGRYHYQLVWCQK

[13] = growth suppression of beta-catenin-knockout colon cells, dose response, cell-based, HCT116, human colon tumor (AID 1045); assay type: functional;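 note: HCT116 colon tumor cells with beta catenin knocked out; cells exposed to compound for 60 hours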
[14] = growth suppression of PTEN-null colon cells, dose response, cell-based, HCT116 PTEN knockout (AID 1047); assay type: functional;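 note: HCT116 colon tumor cells with PTEN knocked out; cells exposed to compound for 60 hours before readout; potency for loss of cell viability measured by luminescence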
[15] = Vero E6 cell cytotoxicity, dose response, cytotoxicity control for non-replicating M. tuberculosis project, secondary assay (AID 492998); assay type: functional, VeroE6; conditions: Vero C1008
[16] = THP-1 cell cytotoxicity, dose response, cytotoxicity control for non-replicating M. tuberculosis project (AID 489025); assay type: functional
[17] = HepG2 cell cytotoxicity, dose response, cytotoxicity control for non-replicating M. tuberculosis project (AID 489018); assay type: functional; conditions: Mycobacterium tuberculosis
[18] = cells; assay type: functional
[19] = molecular target: T6, Microphthalmia-associated transcription factor (Homo sapiens, UniProt O75030); experiment: TRPM1 promoter luciferase signal decrease, dose response, MITF inhibitor project, cell-based, SK-MEL-5, cherry-picked, set 3 (AID 493073); assay type: functional
T6 sequence (O75030 whole entry): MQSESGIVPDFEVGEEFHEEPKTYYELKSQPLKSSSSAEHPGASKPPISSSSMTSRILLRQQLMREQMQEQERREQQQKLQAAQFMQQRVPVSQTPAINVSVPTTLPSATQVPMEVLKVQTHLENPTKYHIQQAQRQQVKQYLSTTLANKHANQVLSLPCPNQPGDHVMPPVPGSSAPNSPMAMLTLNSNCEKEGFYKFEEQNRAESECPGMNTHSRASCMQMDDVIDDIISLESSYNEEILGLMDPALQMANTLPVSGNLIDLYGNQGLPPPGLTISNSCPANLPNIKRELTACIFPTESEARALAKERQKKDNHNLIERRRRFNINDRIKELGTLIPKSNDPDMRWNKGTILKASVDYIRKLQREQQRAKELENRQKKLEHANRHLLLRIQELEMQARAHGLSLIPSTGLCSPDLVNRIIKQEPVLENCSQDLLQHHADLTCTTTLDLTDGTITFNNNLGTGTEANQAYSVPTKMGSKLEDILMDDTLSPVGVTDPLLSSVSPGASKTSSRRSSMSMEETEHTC

[20] = cytotoxicity toward NIH3T3 fibroblasts, dose response, counter-screen, cell-based, ATP luminescence, mouse fibroblasts (AID 2010); assay type: functional;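 note: cells exposed to compound for about 90 hours before reading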
[21] = tested on: Escherichia coli; experiment: microbe, parasite or virus in culture
[22] = tested on: INS1; experiment: beta cell apoptosis inhibitors, cytokine rescue, dose response, luminescence, retest (AID 449756); assay type: functional, cell-based; conditions: Rattus norvegicus;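 note: cell death triggered by IL-1 beta plus TNF-alpha plus IFN-gamma mixture; protective hits raise ATP signal compared with cytokine alone wells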
[23] = inhibitors of intracellular T. cruzi replication, confirmation, NIH3T3 host cells, beta-gal luminescence (AID 2044); assay type: functional, cell-based;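 note: intracellular parasites grown in NIH/3T3 mouse fibroblasts as host cells; luminescent beta-galactosidase reporter signal from transgenic T. cruzi replicating inside host cells; inhibitors lower the luminescence signal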
[24] = molecular target: T7, Short transient receptor potential channel 4 (Mus musculus, UniProt Q9QUQ5); experiment: mouse TRPC4 channel activators, dose response, cell-based, HEK293 TRPC4/mu-opioid, Fluo-4 calcium (AID 434937); assay type: functional
T7 sequence (Q9QUQ5 whole entry): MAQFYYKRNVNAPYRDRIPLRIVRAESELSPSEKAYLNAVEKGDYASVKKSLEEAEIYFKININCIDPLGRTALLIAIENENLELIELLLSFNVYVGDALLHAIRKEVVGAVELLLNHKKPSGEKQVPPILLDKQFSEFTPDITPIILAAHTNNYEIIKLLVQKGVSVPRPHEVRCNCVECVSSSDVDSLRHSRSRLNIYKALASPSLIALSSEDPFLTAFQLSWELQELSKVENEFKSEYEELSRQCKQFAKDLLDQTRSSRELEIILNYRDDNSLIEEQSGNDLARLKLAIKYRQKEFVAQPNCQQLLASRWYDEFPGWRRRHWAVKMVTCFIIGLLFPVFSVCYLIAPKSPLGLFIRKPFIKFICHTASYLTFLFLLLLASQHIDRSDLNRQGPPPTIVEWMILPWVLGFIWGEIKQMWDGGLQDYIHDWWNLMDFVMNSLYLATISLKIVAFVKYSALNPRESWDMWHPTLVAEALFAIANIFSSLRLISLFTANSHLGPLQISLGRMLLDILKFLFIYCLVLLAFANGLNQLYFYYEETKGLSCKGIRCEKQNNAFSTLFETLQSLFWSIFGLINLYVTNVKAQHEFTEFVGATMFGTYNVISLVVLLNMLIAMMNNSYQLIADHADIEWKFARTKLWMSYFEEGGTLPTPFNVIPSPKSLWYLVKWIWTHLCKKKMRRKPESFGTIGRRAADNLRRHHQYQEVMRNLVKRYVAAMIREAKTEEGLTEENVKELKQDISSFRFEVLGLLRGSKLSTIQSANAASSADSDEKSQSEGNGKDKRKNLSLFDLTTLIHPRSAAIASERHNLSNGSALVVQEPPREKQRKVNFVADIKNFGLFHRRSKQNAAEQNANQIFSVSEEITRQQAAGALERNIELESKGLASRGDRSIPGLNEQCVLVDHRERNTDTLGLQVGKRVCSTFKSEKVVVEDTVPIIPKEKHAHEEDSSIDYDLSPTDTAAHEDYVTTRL

[25] = molecular target: T7, Short transient receptor potential channel 4; experiment: mouse TRPC4 channel inhibitors, dose response, cell-based, HEK293 TRPC4/mu-opioid, Fluo-4 calcium (AID 434942); assay type: functional;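 note: potency of inhibitors blocking the TRPC4 calcium response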
[26] = molecular target: Intestinal-type alkaline phosphatase (Homo sapiens, UniProt P09923); experiment: human intestinal alkaline phosphatase activators, dose response, biochemical, luminescence, uHTS hits (AID 463120); assay type: functional
Chain of Intestinal-type alkaline phosphatase (P09923 whole entry): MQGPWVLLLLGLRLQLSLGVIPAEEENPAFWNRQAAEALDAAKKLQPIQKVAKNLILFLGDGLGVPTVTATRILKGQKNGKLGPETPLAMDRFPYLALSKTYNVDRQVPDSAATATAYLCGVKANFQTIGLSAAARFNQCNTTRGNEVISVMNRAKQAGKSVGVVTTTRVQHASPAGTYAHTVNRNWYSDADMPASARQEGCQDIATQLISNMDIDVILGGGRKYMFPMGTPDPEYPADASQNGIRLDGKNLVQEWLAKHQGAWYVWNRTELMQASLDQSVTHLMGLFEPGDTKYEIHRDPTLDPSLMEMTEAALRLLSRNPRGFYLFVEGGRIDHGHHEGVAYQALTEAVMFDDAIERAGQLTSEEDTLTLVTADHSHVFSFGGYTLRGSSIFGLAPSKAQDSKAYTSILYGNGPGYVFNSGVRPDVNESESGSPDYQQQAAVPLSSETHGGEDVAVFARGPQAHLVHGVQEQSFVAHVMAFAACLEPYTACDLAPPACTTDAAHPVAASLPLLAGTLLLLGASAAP

For `COc1ccc(Nc2nc(-c3cccnc3)nc3ccccc23)cn1`, the EC50 [1] was 8.22 µM (active), the AC50 [2] was > 52 µM (inactive) and the EC50 [3] was 12.4 µM (active).
For `COc1ccc(S(=O)(=O)NCc2ccc(C(=O)N3CCN(Cc4ccccc4)CC3)cc2)cc1`, the EC50 [4] was > 32 µM (inactive), the IC50 [5] was > 10 µM (inactive) and the IC50 [6] was > 32 µM (inactive). For the same compound, the IC50 [7] was > 32 µM (inactive), the IC50 [8] was > 32 µM (inactive) and the EC50 [9] was > 32 µM (inactive). The EC50 [10] was > 32 µM (inactive).
For `O=C(NC(NC(=S)Nc1ccc(F)cc1)C(Cl)(Cl)Cl)OCc1ccccc1` (stereo not drawn), the EC50 [4] was > 32 µM (inactive), the IC50 [5] was > 10 µM (inactive) and the IC50 [6] was 6.02 µM (active). The IC50 [7] was > 32 µM (inactive), the IC50 [8] was > 32 µM (inactive) and the EC50 [9] was > 32 µM (inactive). For the same compound, the EC50 [10] was > 32 µM (inactive).
With `O=C1Nc2ccc(Br)cc2/C1=N/N=C/C1=C(N2CCOCC2)C(=C\c2ccccc2)/CC1` the IC50 [11] was > 40 µM (not active), the EC50 [12] was > 40 µM (inactive) and the EC50 [13] was 11.4 µM (active). The EC50 [14] was 9.88 µM (active).
In the case of `O=[N+]([O-])c1ccc(/C=N/n2c(CO)nc3ccccc32)s1`, the CC50 [15] is reported as 14.7 µM (active), the CC50 [16] is reported as 32.4 µM (active) and the CC50 [17] is reported as > 20 µM (active). The IC50 [18] was 1.51 µM (active), the AC50 [19] was 1.97 µM (active) and the EC50 [20] was 42 µM (active). For the same compound, the AC50 [21] was 121 µM (active), the AC50 [22] was 4.91 µM (active) and the EC50 [23] was 568 nM (active).
In the case of `C/C(=N/NC(=O)c1ccc(Cn2cccn2)o1)c1cccc(NC(=O)c2ccncc2)c1`, the EC50 [24] is reported as 5.31 µM (active), the EC50 [25] is reported as 3.76 µM (active) and the EC50 [26] is reported as > 100 µM (inactive).
